Measurements: patent publication US9090568B2, “Quinazolinediones and their use” (IMPACT Therapeutics, Inc., priority 2011, dated 2015)
Read-outs that look alike come from different tables or passages of the source.

Legend:
PARP-1 = target: T1, PARP-1 (Homo sapiens, UniProt P09874); experiment: PARP-1 activity assay (HT Universal chemiluminescent PARP Assay Kit); type: biochemical; conditions: 0.5 unit/well PARP-1, 25° C., 45 minutes; read-out: PARP1 enzyme IC50
T1 construct: purchased Trevigen
Description: PARP-1 activity was determined using a HT Universal chemiluminescent PARP Assay Kit (Trevigen, Gaithersburg, Md., USA). The assay was to measure the incorporation of biotinylated poly(ADP-ribose) onto histone proteins catalyzed by PARP-1 upon activation with DNA. Experimental procedures were followed according to the instruction provided with the assay kit. In brief, PARP-1 (0.5 unit/well) was incubated with activated DNA and NAD^+ in reaction buffer in the presence or absence of test articles in histone-coated strip wells at 25° C. for 45 minutes. After incubation, the strip wells were incubated with Strep-HRP at 25° C. for 60 minutes after washes with PBS containing 0.1% Triton X-100. The chemiluminescence was measured with a Victor X5 2030 Multilabel Reader (Perkin Elmer) immediately after the addition of PeroxyGlow™ to the strip wells. IC50 value was calculated using median-effect method (Chou, T. C. (2006). Pharmacol. Rev. 58(3): 621-681).

MDA-MB-436 cells = experiment: Cell proliferation assay (MTS, 7 days); type: cell-based; conditions: Homo sapiens
Description: Cell Proliferation Assay:
MDA-MB-436 cells were purchased from American Type Culture Collection (USA). Cells were maintained at 37° C. in a humidified atmosphere with 5% CO2. For proliferation test, MDA-MB-436 cells were seeded in 96-well plates at low density in RPMI-1640 medium supplemented with 10% FBS and incubated for 24 h at 37° C. in a humidified atmosphere with 5% CO2. Cells were further incubated in fresh medium in the presence or absence of the test articles at 37° C. for 7 days. The proliferation of cells was measured with a 3-(4,5-dimethylthiazol-2-yl)-5-(3-carboxymethoxyphenyl)-2-(4-sulfophenyl)-2H-tetrazolium (MTS) assay using a CellTiter 96® Aqueous Non-Radioactive Cell Proliferation kit (Promega). The absorbance at 490 nm (A490) was determined with a Victor X5 2030 Multilabel Reader (Perkin Elmer). IC50 value was calculated using median-effect method (Chou, T. C. (2006). Pharmacol. Rev. 58(3): 621-681).

[1] = Pharmacokinetic assay, intravenous and oral administration; type: in vivo, Sprague-Dawley rats; conditions: after oral administrations in rats; for half-life: Sprague-Dawley, rat, plasma, read-out: t½
Description: The tested articles were given to Sprague-Dawley rats by intravenous and oral administration. Plasma samples were prepared from blood samples which were collected at various time points. The plasma concentrations of the tested articles were determined by specific LC-MS/MS analytical methods. Pharmacokinetic parameters were calculated with WinNonlin®.

[2] = 168 h, MDA-MB-436 cells, 7 days, MTS, read-out: MDA-MB-436 cells EC50

T1 sequence (P09874 whole entry): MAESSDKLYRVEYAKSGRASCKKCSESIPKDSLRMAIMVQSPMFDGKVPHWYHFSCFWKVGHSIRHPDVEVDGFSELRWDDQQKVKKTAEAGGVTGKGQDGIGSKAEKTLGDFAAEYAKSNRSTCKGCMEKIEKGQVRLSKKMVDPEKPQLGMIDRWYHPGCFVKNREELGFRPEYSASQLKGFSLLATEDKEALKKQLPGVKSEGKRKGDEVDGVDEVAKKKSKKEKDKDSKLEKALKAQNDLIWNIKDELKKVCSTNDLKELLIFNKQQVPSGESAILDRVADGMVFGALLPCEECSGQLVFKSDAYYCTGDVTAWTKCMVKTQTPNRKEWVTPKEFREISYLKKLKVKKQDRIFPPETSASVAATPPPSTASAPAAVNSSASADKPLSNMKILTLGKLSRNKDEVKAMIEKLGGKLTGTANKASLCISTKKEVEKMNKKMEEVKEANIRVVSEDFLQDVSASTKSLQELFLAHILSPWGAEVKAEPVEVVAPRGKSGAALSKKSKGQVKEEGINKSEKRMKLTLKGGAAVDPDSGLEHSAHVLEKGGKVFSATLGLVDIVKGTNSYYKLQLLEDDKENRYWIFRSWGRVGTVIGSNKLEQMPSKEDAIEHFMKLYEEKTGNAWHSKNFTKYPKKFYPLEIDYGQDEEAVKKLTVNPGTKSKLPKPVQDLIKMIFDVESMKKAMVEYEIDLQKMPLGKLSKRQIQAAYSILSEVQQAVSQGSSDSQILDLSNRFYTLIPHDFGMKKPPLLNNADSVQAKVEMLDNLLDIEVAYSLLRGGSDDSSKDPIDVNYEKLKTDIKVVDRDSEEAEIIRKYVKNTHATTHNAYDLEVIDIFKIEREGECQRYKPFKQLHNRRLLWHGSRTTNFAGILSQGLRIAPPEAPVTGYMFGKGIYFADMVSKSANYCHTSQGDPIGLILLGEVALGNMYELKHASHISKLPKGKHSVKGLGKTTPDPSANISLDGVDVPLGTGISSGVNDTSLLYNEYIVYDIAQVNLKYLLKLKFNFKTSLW

| IC50 (PARP-1) | EC50 (MDA-MB-436 cells; [2]) | half-life [1] | bioavailability (in words) [1] | Compound | EC50 (MDA-MB-436 cells; MDA-MB-436, 168 h, read-out: MDA-MB-436 cells EC50 (μM)) |
| --- | --- | --- | --- | --- | --- |
| 0.1 to 10 nM | > 0.01 µM |  |  | CC1(C(=O)N2CCN(C(=O)c3cc(Cn4c(=O)[nH]c(=O)c5ccccc54)ccc3F)CC2)CCCN1 (stereo in doubt) [Example 40, (R)-1-(4-fluoro-3-(4-(2-methylpyrrolidine-2-carbonyl)piperazine-1-carbonyl)benzyl)quinazoline-2,4(1H,3H)-dione] |  |
| 0.1 to 10 nM | 1 to 100 µM |  |  | O=C(c1cccc(Cn2c(=O)[nH]c(=O)c3ccccc32)c1)N1CCN(C(=O)C2CC2)CC1 [Example 2] |  |
| 0.1 to 10 nM | 1 to 100 µM |  |  | O=C(c1cc(Cn2c(=O)[nH]c(=O)c3ccccc32)ccc1Cl)N1CCN(C(=O)C2CC2)CC1 [Example 3] |  |
| > 10 nM | 1 to 100 µM |  |  | O=C(c1cc(Cn2c(=O)[nH]c(=O)c3ccccc32)ccc1F)N1CCCCC1 [Example 4] |  |
| 0.1 to 10 nM | 1 to 100 µM |  |  | O=C(c1cc(Cn2c(=O)[nH]c(=O)c3ccccc32)ccc1F)N1CCC(OC(F)F)CC1 [Example 11] |  |
| 0.1 to 10 nM | 0.0001 to 0.01 µM |  |  | O=C(c1cc(Cn2c(=O)[nH]c(=O)c3ccccc32)ccc1F)N1CCC(Oc2ccccn2)CC1 [Example 12] |  |
| 0.1 to 10 nM | > 0.01 µM |  |  | O=C(c1cc(Cn2c(=O)[nH]c(=O)c3ccccc32)ccc1F)N1CCC(n2cc(Br)cn2)CC1 [Example 14] |  |
| 0.1 to 10 nM | 1 to 100 µM |  |  | O=C(c1cc(Cn2c(=O)[nH]c(=O)c3ccccc32)ccc1F)N1CCC(n2cccn2)CC1 [Example 15] |  |
| 0.1 to 10 nM | > 0.01 µM |  |  | O=C(c1cc(Cn2c(=O)[nH]c(=O)c3ccccc32)ccc1F)N1CCC(N2CCCC2)CC1 [Example 17] |  |
| 0.1 to 10 nM | 1 to 100 µM |  |  | COC(=O)C1CCN(C(=O)c2cc(Cn3c(=O)[nH]c(=O)c4ccccc43)ccc2F)CC1 [Example 18] |  |
| > 10 nM | 1 to 100 µM |  |  | CCNC(=O)OC1CCN(C(=O)c2cc(Cn3c(=O)[nH]c(=O)c4ccccc43)ccc2F)CC1 [Example 19] |  |
| > 10 nM |  |  |  | O=C(O)C1CCN(C(=O)c2cc(Cn3c(=O)[nH]c(=O)c4ccccc43)ccc2F)CC1 [Example 20] |  |
| > 10 nM | 1 to 100 µM |  |  | O=C(NC1CC1)C1CCN(C(=O)c2cc(Cn3c(=O)[nH]c(=O)c4ccccc43)ccc2F)CC1 [Example 21] |  |
| > 10 nM |  |  |  | O=C(c1cc(Cn2c(=O)[nH]c(=O)c3ccccc32)ccc1F)N1CCC(ON=C2CCc3ccccc32)CC1 [Example 22] |  |
| 0.1 to 10 nM | > 0.01 µM |  |  | O=C(c1cc(Cn2c(=O)[nH]c(=O)c3ccccc32)ccc1F)N1Cc2cccc(F)c2C1 [Example 24] |  |
| 0.1 to 10 nM | > 0.01 µM | > 2 h | bioavailable | O=C(c1cc(Cn2c(=O)[nH]c(=O)c3ccccc32)ccc1F)N1Cc2cccnc2C1 [Example 25] |  |

| IC50 (PARP-1) | EC50 (MDA-MB-436 cells; [2]) | half-life [1] | bioavailability (in words) [1] | Compound | EC50 (MDA-MB-436 cells; MDA-MB-436, 168 h, read-out: MDA-MB-436 cells EC50 (μM)) |
| --- | --- | --- | --- | --- | --- |
| 0.1 to 10 nM | > 0.01 µM |  |  | O=C(c1cc(Cn2c(=O)[nH]c(=O)c3ccccc32)ccc1F)N1Cc2nccnc2C1 [Example 26] |  |
| 0.1 to 10 nM | 0.0001 to 0.01 µM |  |  | O=C(c1cc(Cn2c(=O)[nH]c(=O)c3ccccc32)ccc1F)N1CCN(c2ncccn2)CC1 [Example 28] |  |
| 0.1 to 10 nM | 1 to 100 µM |  |  | O=C(c1cc(Cn2c(=O)[nH]c(=O)c3ccccc32)ccc1F)N1CC=C(c2ccc(F)cc2)CC1 [Example 29] |  |
| 0.1 to 10 nM | > 0.01 µM |  |  | O=C(c1ccccn1)N1CCN(C(=O)c2cc(Cn3c(=O)[nH]c(=O)c4ccccc43)ccc2F)CC1 [Example 30] |  |
| 0.1 to 10 nM |  |  |  | O=C(c1cc(Cn2c(=O)[nH]c(=O)c3ccccc32)ccc1F)N1CCNCC1 [Example 30b, 1-(4-fluoro-3-(piperazine-1-carbonyl)benzyl)quinazoline-2,4(1H,3H)-dione hydrochloric acid] |  |
| 0.1 to 10 nM | > 0.01 µM |  |  | O=C(c1ccno1)N1CCN(C(=O)c2cc(Cn3c(=O)[nH]c(=O)c4ccccc43)ccc2F)CC1 [Example 31] |  |
| 0.1 to 10 nM | > 0.01 µM |  |  | O=C(c1cnccn1)N1CCN(C(=O)c2cc(Cn3c(=O)[nH]c(=O)c4ccccc43)ccc2F)CC1 [Example 32] |  |
| 0.1 to 10 nM | > 0.01 µM |  |  | Cc1cnc(C(=O)N2CCN(C(=O)c3cc(Cn4c(=O)[nH]c(=O)c5ccccc54)ccc3F)CC2)cn1 [Example 33] |  |
| 0.1 to 10 nM | > 0.01 µM |  |  | O=C(c1cnco1)N1CCN(C(=O)c2cc(Cn3c(=O)[nH]c(=O)c4ccccc43)ccc2F)CC1 [Example 34] |  |
| 0.1 to 10 nM | > 0.01 µM |  |  | Cc1cc(C(=O)N2CCN(C(=O)c3cc(Cn4c(=O)[nH]c(=O)c5ccccc54)ccc3F)CC2)no1 [Example 35] |  |
| 0.1 to 10 nM | > 0.01 µM |  |  | Cc1cc(C(=O)N2CCN(C(=O)c3cc(Cn4c(=O)[nH]c(=O)c5ccccc54)ccc3F)CC2)on1 [Example 36] |  |
| 0.1 to 10 nM | > 0.01 µM |  |  | Cc1nc(C)c(C(=O)N2CCN(C(=O)c3cc(Cn4c(=O)[nH]c(=O)c5ccccc54)ccc3F)CC2)o1 [Example 37] |  |
| 0.1 to 10 nM | > 0.01 µM | > 2 h | bioavailable | O=C(c1cc(Cn2c(=O)[nH]c(=O)c3ccccc32)ccc1F)N1CCN(C(=O)C2CCCO2)CC1 (stereo not shown) [Example 38] |  |
| 0.1 to 10 nM | > 0.01 µM |  |  | CC1(C(=O)N2CCN(C(=O)c3cc(Cn4c(=O)[nH]c(=O)c5ccccc54)ccc3F)CC2)CCCO1 (stereo not shown) [Example 39] |  |
| 0.1 to 10 nM | > 0.01 µM |  |  | CCOC(=O)N1CCN(C(=O)c2cc(Cn3c(=O)[nH]c(=O)c4ccccc43)ccc2F)CC1 [Example 41] |  |
| 0.1 to 10 nM | > 0.01 µM |  |  | O=C(OC1CCCC1)N1CCN(C(=O)c2cc(Cn3c(=O)[nH]c(=O)c4ccccc43)ccc2F)CC1 [Example 42] |  |

| Compound | IC50 (PARP-1) | EC50 (MDA-MB-436 cells; [2]) | half-life [1] | bioavailability (in words) [1] | EC50 (MDA-MB-436 cells; MDA-MB-436, 168 h, read-out: MDA-MB-436 cells EC50 (μM)) |
| --- | --- | --- | --- | --- | --- |
| O=C(c1cc(Cn2c(=O)[nH]c(=O)c3ccccc32)ccc1F)N1CCN(C(=O)C2CC2)CC1 [Example 1] | 0.1 to 10 nM |  |  |  | > 0.01 µM |
